From patent publication US11999715B2, “ASK1 inhibiting agents” (BIOGEN MA INC., priority 2018, dated 2024)

Key:
[1] = In vivo brain penetration, rat Kpuu study; settings: brain and plasma (unbound concentrations), IV infusion for four hours (1 mg/kg) to steady state, Kpuu=Cu,b/Cu,p
Description: Example 113: In Vivo Brain Penetration To evaluate the CNS penetration of the compounds described herein, several compounds were selected for in vivo rat Kpuu studies. In these experiments the compounds are administered via an IV infusion (using N,N-dimethylacetamide:ethanol:1,2-propylene glycol:water in a 1:1:3:5 ratio as the vehicle) in the carotid artery for a period of four hours (1 mg/kg, 0.1 mg/mL) to reach steady state. After this time the plasma and brain concentration levels are quantified, and the values are adjusted by the measured protein binding in plasma and brain homogenate to calculate the Kpuu (see Di, […] . Blood-Brain Barrier in Drug Discovery (Wiley)) according to the equation below. Kpuu=Cu,b/Cu,p Wherein: • Cu,b=Unbound concentration in brain (C×fu,b). (C=concentration at steady state; fu,b=fraction unbound in brain) • And in which: Cu,p=Unbound concentration in plasma (C×fu,p). (C=concentration at steady state; fu,p=fraction unbound in plasma) Plasma and brain protein binding values were generated via the Rapid Equilibrium Dialysis method. The compound of interest was incubated in K2EDTA plasma and brain homogenate (homogenized 1:7 (w:v) in 1×PBS) purchased from BioIVT (Westbury, NY), opposite a buffered compartment of 100 mM Potassium phosphate/150 mM Sodium chloride, pH 7.4, at 1 μM for 4 hr and 6 hr respectively. At the conclusion of incubation samples were taken from both matrix and buffered compartments, matrix-matched using blank buffer and matrix, extracted with acetonitrile, diluted with water, and analyzed utilizing an Agilent RapidFire 365 high-throughput LC coupled with MS/MS detection via an AB Sciex 5500. Free fractions (fu) were then calculated by comparing internal standard/analyte peak-area ratios of matrix and buffered compartments. […] Total drug concentration in plasma and brain tissue was measured via well-established bioanalytical extraction (protein precipitation) and detection methods (LC-MS/MS).

[2] = target: T1, ASK1 T838 auto phosphorylation (Homo sapiens, UniProt Q99683); assay: ASK1 (AUTO PHOS T838) assay, MSD format, in HEK-293T cells transfected with ASK1-V5; format: cell-based; settings: ASK1 T838 auto phosphorylation in HEK-293T cells, 1 hr compound incubation; class symbols
T1 sequence (Q99683 1-1374): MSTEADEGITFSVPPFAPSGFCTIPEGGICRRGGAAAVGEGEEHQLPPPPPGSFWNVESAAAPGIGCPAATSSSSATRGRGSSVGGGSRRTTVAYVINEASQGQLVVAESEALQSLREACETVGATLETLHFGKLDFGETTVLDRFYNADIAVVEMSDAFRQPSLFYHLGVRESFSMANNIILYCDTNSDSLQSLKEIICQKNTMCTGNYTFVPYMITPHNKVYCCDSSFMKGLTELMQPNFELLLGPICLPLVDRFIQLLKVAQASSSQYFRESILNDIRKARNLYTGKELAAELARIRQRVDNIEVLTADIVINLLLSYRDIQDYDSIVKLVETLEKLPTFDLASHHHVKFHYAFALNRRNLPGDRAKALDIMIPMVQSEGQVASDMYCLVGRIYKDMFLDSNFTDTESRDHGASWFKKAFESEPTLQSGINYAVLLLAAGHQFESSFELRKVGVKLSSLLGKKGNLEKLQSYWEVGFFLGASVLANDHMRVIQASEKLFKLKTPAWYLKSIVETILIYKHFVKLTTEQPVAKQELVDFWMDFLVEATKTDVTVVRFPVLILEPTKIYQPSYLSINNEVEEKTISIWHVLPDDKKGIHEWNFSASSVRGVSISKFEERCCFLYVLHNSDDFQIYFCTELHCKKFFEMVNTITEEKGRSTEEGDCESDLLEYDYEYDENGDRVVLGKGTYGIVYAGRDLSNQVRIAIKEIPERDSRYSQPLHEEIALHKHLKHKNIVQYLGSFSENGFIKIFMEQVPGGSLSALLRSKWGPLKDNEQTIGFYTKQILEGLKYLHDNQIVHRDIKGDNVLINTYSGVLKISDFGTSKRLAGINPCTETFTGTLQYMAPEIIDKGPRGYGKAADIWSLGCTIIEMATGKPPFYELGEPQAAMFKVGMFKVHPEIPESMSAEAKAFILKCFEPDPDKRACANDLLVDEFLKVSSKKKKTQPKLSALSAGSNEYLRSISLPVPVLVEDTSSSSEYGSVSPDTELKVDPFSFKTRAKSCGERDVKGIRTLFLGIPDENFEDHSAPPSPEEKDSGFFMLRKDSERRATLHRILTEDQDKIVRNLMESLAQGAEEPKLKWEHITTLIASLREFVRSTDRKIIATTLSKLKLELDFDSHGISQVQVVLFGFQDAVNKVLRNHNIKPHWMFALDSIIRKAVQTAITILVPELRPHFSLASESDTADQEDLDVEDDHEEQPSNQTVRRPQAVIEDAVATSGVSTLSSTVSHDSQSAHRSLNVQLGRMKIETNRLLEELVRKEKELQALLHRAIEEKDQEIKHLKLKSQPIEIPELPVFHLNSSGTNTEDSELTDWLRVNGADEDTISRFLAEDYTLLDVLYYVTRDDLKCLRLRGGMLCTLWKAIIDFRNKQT
Outline: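 HEK-293T cells transiently transfected with full-length ASK1-V5 plasmid were replated, then treated 1 h at 37 °C with a 10-point, 3-fold series from 20 μM. Lysates were probed by MSD with anti-pASK1 T838 and a sulfo-tag secondary, read by chemiluminescence. IC50 came from a 4-parameter fit of normalized % activity.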

ASK1/MAP3K5 = target: T2, ASK1/MAP3K5 (Homo sapiens, UniProt Q99683); assay: ASK1/MAP3K5 kinase assay by Reaction Biology Corp. (headed ASK1 TR-FRET Assay); format: biochemical; settings: 20 μM myelin basic protein, 10 μM ATP
T2 sequence (Q99683 1-1374): T1 sequence (Q99683 1-1374)
Outline: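 Radiometric filter-binding assay with ASK1/MAP3K5, 20 μM MBP substrate and 10 μM ATP plus ^33P-ATP in HEPES pH 7.5 buffer with 1% DMSO. Compounds were preincubated with kinase 20 min, and the reaction then ran 2 hours at room temperature.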

Row | SMILES | Kp uu at 4 h [1] | IC50 [2] | IC50 (ASK1/MAP3K5; class symbols) | IC50 (ASK1/MAP3K5; class given in words)
1 | C[C@@H](n1cnnc1-c1cccc(NC(=O)c2cn(C)nc2C(F)F)n1)C(F)(F)F [Example 23, (R)-3-(Difluoromethyl)-1-methyl-N-(6-(4-(1,1,1-trifluoropropan-2-yl)-4H-1,2,4-triazol-3-yl)pyridin-2-yl)-1H-pyrazole-4-carboxamide] | 0.14 | ≤ 1 µM | ≤ 0.1 µM | –
2 | C=CCn1cc(C(=O)Nc2cccc(-c3nncn3C(C)C(F)(F)F)n2)c(OC)n1 (centres unmarked) [Example 56, 1-Allyl-3-methoxy-N-(6-(4-(1,1,1-trifluoropropan-2-yl)-4H-1,2,4-triazol-3-yl)pyridin-2-yl)-1H-pyrazole-4-carboxamide] | 0.33 | ≤ 1 µM | ≤ 0.1 µM | –
3 | COc1nn(-c2ncccc2C)cc1C(=O)Nc1cccc(-c2nncn2C(C)C)n1 [Example 62, N-(6-(4-Isopropyl-4H-1,2,4-triazol-3-yl)pyridin-2-yl)-3-methoxy-1-(3-methylpyridin-2-yl)-1H-pyrazole-4-carboxamide] | 0.16 | ≤ 1 µM | ≤ 0.1 µM | –
4 | CC(C)n1cncc1-c1cccc(NC(=O)c2cn(-c3cncc(C4CC4)c3)nc2C(F)F)n1 [Example 96, 1-(5-Cyclopropylpyridin-3-yl)-3-(difluoromethyl)-N-(6-(1-isopropyl-1H-imidazol-5-yl)pyridin-2-yl)-1H-pyrazole-4-carboxamide] | – | ≤ 1 µM | 0.1 to 1 µM | –
5 | COc1cncc(-n2cc(C(=O)Nc3cccc(-c4cncn4C(C)C)n3)c(C(F)F)n2)c1 [Example 97, 3-(Difluoromethyl)-N-(6-(1-isopropyl-1H-imidazol-5-yl)pyridin-2-yl)-1-(5-methoxypyridin-3-yl)-1H-pyrazole-4-carboxamide] | – | ≤ 1 µM | ≤ 0.1 µM | –
6 | CC(C)n1cncc1-c1cccc(NC(=O)c2cn(-c3cncc(N(C)C)c3)nc2C(F)F)n1 [Example 98, 3-(Difluoromethyl)-1-(5-(dimethylamino)pyridin-3-yl)-N-(6-(1-isopropyl-1H-imidazol-5-yl)pyridin-2-yl)-1H-pyrazole-4-carboxamide] | – | ≤ 1 µM | 0.1 to 1 µM | –
7 | CC(C)n1cncc1-c1cccc(NC(=O)c2cn(-c3cncc(O)c3)nc2C(F)F)n1 [Example 99, 3-(Difluoromethyl)-1-(5-hydroxypyridin-3-yl)-N-(6-(1-isopropyl-1H-imidazol-5-yl)pyridin-2-yl)-1H-pyrazole-4-carboxamide] | – | ≤ 1 µM | ≤ 0.1 µM | –
8 | CC(C)Oc1cncc(-n2cc(C(=O)Nc3cccc(-c4cncn4C(C)C)n3)c(C(F)F)n2)c1 [Example 100, 3-(Difluoromethyl)-1-(5-isopropoxypyridin-3-yl)-N-(6-(1-isopropyl-1H-imidazol-5-yl)pyridin-2-yl)-1H-pyrazole-4-carboxamide] | – | ≤ 1 µM | ≤ 0.1 µM | –
9 | COc1nn(C)cc1C(=O)Nc1cccc(-c2cncn2C2CC2)c1 [Example 101, N-(3-(1-cyclopropyl-1H-imidazol-5-yl)phenyl)-3-methoxy-1-methyl-1H-pyrazole-4-carboxamide] | – | > 10 µM | 1 to 10 µM | –
10 | COc1nn(CC(F)(F)F)cc1C(=O)Nc1cccc(-c2nncn2C(C)C)n1 [Example 102, N-(6-(4-Isopropyl-4H-1,2,4-triazol-3-yl)pyridin-2-yl)-3-methoxy-1-(2,2,2-trifluoroethyl)-1H-pyrazole-4-carboxamide] | – | ≤ 1 µM | ≤ 0.1 µM | –
11 | COc1nn(CC(F)(F)F)cc1C(=O)Nc1cccc(-c2nncn2[C@@H](C)C(F)(F)F)n1 [Example 103, (S)-3-Methoxy-1-(2,2,2-trifluoroethyl)-N-(6-(4-(1,1,1-trifluoropropan-2-yl)-4H-1,2,4-triazol-3-yl)pyridin-2-yl)-1H-pyrazole-4-carboxamide] | – | ≤ 1 µM | ≤ 0.1 µM | –
12 | COc1nn(CC(F)(F)F)cc1C(=O)Nc1cccc(-c2nncn2[C@@H](C)C(C)C)n1 [Example 104, (S)-3-Methoxy-N-(6-(4-(3-methylbutan-2-yl)-4H-1,2,4-triazol-3-yl)pyridin-2-yl)-1-(2,2,2-trifluoroethyl)-1H-pyrazole-4-carboxamide] | – | ≤ 1 µM | ≤ 0.1 µM | –
13 | COc1nn(CC(F)(F)F)cc1C(=O)Nc1cccc(-c2nncn2C2CC2)n1 [Example 105, N-(6-(4-Cyclopropyl-4H-1,2,4-triazol-3-yl)pyridin-2-yl)-3-methoxy-1-(2,2,2-trifluoroethyl)-1H-pyrazole-4-carboxamide] | – | ≤ 1 µM | ≤ 0.1 µM | –
14 | COc1nn(CC(F)(F)F)cc1C(=O)Nc1cccc(-c2cncn2C(C)C)n1 [Example 106, N-(6-(1-Isopropyl-1H-imidazol-5-yl)pyridin-2-yl)-3-methoxy-1-(2,2,2-trifluoroethyl)-1H-pyrazole-4-carboxamide] | – | ≤ 1 µM | ≤ 0.1 µM | –
15 | COc1nn(C)cc1C(=O)Nc1cccc(-c2nncn2C2COC2)n1 [Example 107, 3-Methoxy-1-methyl-N-(6-(4-(oxetan-3-yl)-4H-1,2,4-triazol-3-yl)pyridin-2-yl)-1H-pyrazole-4-carboxamide] | – | > 10 µM | – | ≥ 10 µM
16 | COc1nn(C)cc1C(=O)Nc1cccc(-c2nncn2C2CCOCC2)n1 [Example 108, 3-Methoxy-1-methyl-N-(6-(4-(tetrahydro-2H-pyran-4-yl)-4H-1,2,4-triazol-3-yl)pyridin-2-yl)-1H-pyrazole-4-carboxamide] | – | 1 to 10 µM | 0.1 to 1 µM | –
